Test results from ChEMBL document CHEMBL5291721, “A preclinical secondary pharmacology resource illuminates target-adverse drug reaction associations of marketed drugs” (Nat Commun, 2023).

Experiments:
[1] = biological target: T1, 5-hydroxytryptamine receptor 2C (Homo sapiens, UniProt P28335)
T1 sequence (P28335 whole entry): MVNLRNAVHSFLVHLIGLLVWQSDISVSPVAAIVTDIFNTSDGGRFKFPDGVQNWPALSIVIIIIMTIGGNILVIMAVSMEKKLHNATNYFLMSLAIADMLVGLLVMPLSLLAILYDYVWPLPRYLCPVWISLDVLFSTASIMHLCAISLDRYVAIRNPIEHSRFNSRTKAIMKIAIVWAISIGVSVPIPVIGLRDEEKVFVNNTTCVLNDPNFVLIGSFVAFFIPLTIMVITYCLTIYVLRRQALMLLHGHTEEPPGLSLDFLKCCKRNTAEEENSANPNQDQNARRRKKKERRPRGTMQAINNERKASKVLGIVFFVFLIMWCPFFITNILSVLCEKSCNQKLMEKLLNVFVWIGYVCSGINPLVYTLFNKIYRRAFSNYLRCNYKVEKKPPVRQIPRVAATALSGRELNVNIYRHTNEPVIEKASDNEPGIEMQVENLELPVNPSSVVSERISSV

Progesterone receptor = biological target: T2, Progesterone receptor (Homo sapiens, UniProt P06401); format: functional
T2 sequence (P06401 whole entry): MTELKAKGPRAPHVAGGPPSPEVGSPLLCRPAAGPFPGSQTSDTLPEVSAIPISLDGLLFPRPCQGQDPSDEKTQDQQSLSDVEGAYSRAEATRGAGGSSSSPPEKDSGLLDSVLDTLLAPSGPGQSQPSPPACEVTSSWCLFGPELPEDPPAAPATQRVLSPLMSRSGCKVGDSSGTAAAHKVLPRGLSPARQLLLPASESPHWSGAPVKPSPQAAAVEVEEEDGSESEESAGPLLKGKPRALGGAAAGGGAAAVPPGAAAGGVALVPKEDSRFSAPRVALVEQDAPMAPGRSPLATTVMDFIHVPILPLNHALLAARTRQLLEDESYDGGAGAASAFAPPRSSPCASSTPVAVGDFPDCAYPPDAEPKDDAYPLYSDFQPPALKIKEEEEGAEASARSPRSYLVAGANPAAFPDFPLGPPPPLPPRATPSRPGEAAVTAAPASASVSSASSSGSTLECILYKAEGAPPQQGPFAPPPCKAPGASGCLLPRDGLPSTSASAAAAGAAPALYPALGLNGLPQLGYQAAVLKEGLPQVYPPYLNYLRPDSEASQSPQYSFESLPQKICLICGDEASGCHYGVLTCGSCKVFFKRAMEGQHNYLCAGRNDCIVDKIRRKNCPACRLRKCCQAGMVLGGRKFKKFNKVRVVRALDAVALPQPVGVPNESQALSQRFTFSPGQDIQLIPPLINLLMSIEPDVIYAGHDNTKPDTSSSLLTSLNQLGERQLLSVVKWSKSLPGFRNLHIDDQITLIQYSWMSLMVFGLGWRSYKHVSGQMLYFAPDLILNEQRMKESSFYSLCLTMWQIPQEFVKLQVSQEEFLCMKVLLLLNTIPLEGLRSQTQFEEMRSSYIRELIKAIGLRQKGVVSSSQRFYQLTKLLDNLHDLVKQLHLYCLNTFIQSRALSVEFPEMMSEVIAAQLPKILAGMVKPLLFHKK

[2] = biological target: Muscarinic acetylcholine receptor M3 (Homo sapiens, UniProt P20309)
[3] = biological target: 5-hydroxytryptamine receptor 2A (Homo sapiens, UniProt P28223); format: functional, cell-based
[4] = biological target: T3, Muscarinic acetylcholine receptor M2 (Homo sapiens, UniProt P08172); format: functional, cell-based
T3 sequence (P08172 whole entry): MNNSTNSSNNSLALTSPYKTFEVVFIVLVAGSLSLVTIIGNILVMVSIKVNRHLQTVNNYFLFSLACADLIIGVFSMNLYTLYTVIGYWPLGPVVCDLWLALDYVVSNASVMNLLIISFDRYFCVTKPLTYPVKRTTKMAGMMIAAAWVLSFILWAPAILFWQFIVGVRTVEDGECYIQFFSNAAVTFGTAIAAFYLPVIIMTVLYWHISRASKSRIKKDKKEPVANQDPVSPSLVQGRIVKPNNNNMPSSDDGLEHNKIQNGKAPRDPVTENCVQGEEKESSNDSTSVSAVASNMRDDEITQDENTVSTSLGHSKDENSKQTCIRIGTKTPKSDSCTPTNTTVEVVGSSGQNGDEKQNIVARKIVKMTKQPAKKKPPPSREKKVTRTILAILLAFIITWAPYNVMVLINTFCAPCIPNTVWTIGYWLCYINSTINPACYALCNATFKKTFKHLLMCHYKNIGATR

Mu-type opioid receptor = Mu-type opioid receptor (Homo sapiens, UniProt P35372); test: biochemical; format: functional
[5] = biological target: T4, Alpha-2C adrenergic receptor (Homo sapiens, UniProt P18825); format: functional
T4 sequence (P18825 whole entry): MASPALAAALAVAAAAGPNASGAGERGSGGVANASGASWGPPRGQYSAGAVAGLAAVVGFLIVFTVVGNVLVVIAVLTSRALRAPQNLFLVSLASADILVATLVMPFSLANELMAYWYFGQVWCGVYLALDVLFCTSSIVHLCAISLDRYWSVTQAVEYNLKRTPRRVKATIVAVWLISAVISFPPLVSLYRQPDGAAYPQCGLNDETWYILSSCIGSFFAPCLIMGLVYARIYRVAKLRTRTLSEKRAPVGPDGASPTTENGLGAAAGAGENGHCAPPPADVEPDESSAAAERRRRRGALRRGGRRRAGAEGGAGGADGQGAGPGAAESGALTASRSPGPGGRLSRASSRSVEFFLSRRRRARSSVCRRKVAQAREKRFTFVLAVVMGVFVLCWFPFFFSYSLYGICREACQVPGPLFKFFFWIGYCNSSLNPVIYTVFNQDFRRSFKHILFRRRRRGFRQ

D(1A) dopamine receptor = D(1A) dopamine receptor (Homo sapiens, UniProt P21728); format: functional, cell-based
[6] = biological target: T5, Neuropeptide Y receptor type 1 (Homo sapiens, UniProt P25929)
T5 sequence (P25929 whole entry): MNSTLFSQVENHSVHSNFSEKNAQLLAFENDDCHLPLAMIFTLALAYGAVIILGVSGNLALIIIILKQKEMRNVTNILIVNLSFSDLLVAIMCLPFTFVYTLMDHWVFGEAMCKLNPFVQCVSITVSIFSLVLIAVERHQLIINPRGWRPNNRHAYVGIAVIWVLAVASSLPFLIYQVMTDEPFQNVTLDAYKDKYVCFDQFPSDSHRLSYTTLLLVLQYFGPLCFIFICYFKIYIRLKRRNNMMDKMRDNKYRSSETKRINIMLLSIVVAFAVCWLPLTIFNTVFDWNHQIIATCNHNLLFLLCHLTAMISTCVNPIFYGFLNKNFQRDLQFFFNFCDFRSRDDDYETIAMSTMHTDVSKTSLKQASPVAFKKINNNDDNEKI
Note: assay procedure not described here.

Muscarinic acetylcholine receptor M3, sequence (P20309 whole entry): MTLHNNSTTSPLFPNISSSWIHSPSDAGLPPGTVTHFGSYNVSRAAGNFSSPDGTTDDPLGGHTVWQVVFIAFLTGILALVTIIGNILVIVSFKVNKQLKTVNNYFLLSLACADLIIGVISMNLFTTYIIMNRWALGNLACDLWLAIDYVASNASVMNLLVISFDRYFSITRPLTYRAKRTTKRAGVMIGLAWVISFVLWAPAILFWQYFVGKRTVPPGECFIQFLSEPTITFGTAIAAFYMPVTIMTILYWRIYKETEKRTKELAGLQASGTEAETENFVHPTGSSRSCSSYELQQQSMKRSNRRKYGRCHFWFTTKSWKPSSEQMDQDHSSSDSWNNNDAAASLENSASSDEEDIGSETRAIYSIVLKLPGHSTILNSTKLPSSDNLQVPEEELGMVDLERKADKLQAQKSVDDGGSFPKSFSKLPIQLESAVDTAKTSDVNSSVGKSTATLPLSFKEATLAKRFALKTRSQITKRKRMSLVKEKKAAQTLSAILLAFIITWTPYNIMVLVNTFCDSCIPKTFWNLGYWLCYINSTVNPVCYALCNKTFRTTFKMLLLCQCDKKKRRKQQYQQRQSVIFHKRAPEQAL
D(1A) dopamine receptor, sequence (P21728 whole entry): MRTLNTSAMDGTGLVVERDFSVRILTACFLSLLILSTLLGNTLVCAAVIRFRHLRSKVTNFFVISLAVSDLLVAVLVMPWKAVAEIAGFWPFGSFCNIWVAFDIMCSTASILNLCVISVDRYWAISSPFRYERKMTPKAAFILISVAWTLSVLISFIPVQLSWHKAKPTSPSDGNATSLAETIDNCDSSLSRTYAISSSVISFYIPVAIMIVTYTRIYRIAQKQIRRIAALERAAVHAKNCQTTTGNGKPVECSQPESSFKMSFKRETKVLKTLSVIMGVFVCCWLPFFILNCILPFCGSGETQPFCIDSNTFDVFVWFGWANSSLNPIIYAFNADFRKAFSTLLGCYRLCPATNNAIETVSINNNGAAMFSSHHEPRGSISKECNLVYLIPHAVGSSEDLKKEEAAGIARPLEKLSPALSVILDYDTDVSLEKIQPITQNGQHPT
5-hydroxytryptamine receptor 2A, sequence (P28223 whole entry): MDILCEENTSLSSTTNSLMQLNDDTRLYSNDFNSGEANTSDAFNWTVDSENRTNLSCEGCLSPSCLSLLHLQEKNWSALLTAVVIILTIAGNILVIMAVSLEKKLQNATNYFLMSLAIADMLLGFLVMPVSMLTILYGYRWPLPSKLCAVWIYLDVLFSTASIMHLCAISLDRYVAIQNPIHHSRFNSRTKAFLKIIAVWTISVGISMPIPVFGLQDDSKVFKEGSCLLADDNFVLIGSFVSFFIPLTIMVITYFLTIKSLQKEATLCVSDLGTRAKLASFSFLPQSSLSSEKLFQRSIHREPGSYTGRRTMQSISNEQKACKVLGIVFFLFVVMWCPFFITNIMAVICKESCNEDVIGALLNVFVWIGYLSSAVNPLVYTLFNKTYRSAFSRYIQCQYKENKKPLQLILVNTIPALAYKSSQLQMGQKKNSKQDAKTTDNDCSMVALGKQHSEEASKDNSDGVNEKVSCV
Mu-type opioid receptor, sequence (P35372 whole entry): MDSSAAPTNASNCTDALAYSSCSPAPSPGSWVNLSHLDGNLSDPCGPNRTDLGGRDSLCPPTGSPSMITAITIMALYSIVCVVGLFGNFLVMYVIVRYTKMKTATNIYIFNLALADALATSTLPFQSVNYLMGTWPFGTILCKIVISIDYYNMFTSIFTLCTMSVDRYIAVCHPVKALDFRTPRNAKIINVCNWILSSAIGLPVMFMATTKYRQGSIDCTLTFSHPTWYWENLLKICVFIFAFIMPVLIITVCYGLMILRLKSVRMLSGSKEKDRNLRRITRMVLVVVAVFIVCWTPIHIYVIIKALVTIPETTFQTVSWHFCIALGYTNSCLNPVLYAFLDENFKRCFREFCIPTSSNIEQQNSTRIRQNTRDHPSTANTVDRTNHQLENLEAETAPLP

| SMILES | AC50 [1] | AC50 (Progesterone receptor) | AC50 [2] | AC50 [3] | AC50 [4] | AC50 (Mu-type opioid receptor) | AC50 [5] | AC50 (D(1A) dopamine receptor) | AC50 [6] |
| --- | --- | --- | --- | --- | --- | --- | --- | --- | --- |
| CC(CC(c1ccccc1)c1ccccc1)NC(C)(C)C (stereo unspecified) [TERODILINE] | > 30 µM | > 30 µM | 1.1 µM | > 30 µM | 3.1 µM | > 30 µM | > 30 µM | > 30 µM | > 30 µM |
| CO[C@@H]1[C@@H](O[C@@H]2O[C@H](C)[C@@H](O[C@H]3C[C@@](C)(O)[C@@H](OC(=O)CC(C)C)[C@H](C)O3)[C@H](N(C)C)[C@H]2O)[C@@H](CC=O)C[C@@H](C)[C@@H](O)/C=C/C=C/C[C@@H](C)OC(=O)C[C@H]1OC(C)=O [JOSAMYCIN] | > 30 µM | > 10 µM | > 30 µM | > 10 µM | > 10 µM | > 30 µM | > 10 µM | > 10 µM | > 10 µM |
| CC(=O)OCC(=O)[C@@]12N=C(C)O[C@@H]1C[C@H]1[C@@H]3CCC4=CC(=O)C=C[C@]4(C)[C@H]3[C@@H](O)C[C@@]12C [DEFLAZACORT] | > 30 µM | 3.7 µM | > 30 µM | > 30 µM | > 30 µM | > 30 µM | > 30 µM | > 30 µM | > 30 µM |
| O=C(O)C1=C(CSc2nnnn2CS(=O)(=O)O)CS[C@@H]2[C@H](NC(=O)[C@H](O)c3ccccc3)C(=O)N12 [CEFONICID] | > 30 µM | > 30 µM | > 30 µM | > 30 µM | > 30 µM | > 30 µM | > 30 µM | > 30 µM | > 30 µM |
| COc1ccccc1OCCNCC(O)c1ccc(C)c(S(N)(=O)=O)c1 (stereo unspecified) [AMOSULALOL] | > 30 µM | > 30 µM | > 30 µM | 7.7 µM | > 30 µM | > 30 µM | 2.3 µM | > 30 µM | > 30 µM |
| COc1ccc(-c2ccc3cc(C(=O)O)ccc3c2)cc1C12CC3CC(CC(C3)C1)C2 | > 30 µM | > 30 µM | > 30 µM | > 30 µM | > 30 µM | > 30 µM | > 30 µM | > 30 µM | > 30 µM |
| Cc1cccc(C(C)c2cnc[nH]2)c1C (stereo unspecified) [MEDETOMIDINE] | > 30 µM | > 30 µM | > 30 µM | > 30 µM | > 10 µM | > 30 µM | 1.3 µM | > 30 µM | > 30 µM |
| CCCC(C)C1(CC)C(=O)NC(=O)NC1=O (stereo unspecified) [PENTOBARBITAL] | > 30 µM | > 10 µM | > 30 µM | > 10 µM | > 10 µM | > 30 µM | > 30 µM | > 30 µM | > 10 µM |
| COc1cc2c(N)nc(N3CCN(C(=O)OCC(C)(C)O)CC3)nc2c(OC)c1OC [TRIMAZOSIN] | > 30 µM | > 30 µM | > 30 µM | > 30 µM | > 30 µM | > 30 µM | 13 µM | > 30 µM | > 30 µM |
